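Interpolation was linear, between the two tested concentrations surrounding the appropriate level; five concentrations were tested over 48 hours in 96-well plates. GI50: concentration for 50% inhibition of growth. The concentration for full growth arrest is given as TGI.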
Tested on: NCI-H23 lung
Test: NCI anticancer screen, dose series, 48 h

Going from `O=C(O)Cc1cc(O)c(CC(=O)O)cc1O` to `Cc1cc(O)c(C(C)(C)C)cc1Sc1cc(C(C)(C)C)c(O)cc1C`, the TGI falls from > 100 µM to 11.8 µM.

Going from `N#Cc1c(Cl)c2cc([N+](=O)[O-])ccc2n2c1nc1ccccc12` to `Cc1nc2ccccc2n1C(=O)c1c(F)c(F)c(F)c(F)c1F`, the TGI rises from 35.8 µM to 56.2 µM (1.6-fold).

Going from `C=CC1(C)CCC2=C(CCC3C(C)(C(=O)OC)CCCC23C)C1=O` (centres undefined) to `C=C(C)C(=O)OC1CCC2(C)C(CCC3C2CCC2(C)C(c4ccc(=O)oc4)CC4OC432)C1` (centres undefined), the TGI falls from 54.5 µM to 19.3 µM (2.8-fold).

`O=S1(=O)N(CCNc2nccc(-c3c(-c4cccc(O)c4)nc4sccn34)n2)CCN1Cc1ccccc1` and `O=C1CCCCC2N(C(c3ccccc3)c3ccccc3)CC[C@@]12c1ccccc1` (mixture of isomers) cannot be ordered by TGI: 27.7 µM for the first, > 10 µM for the second.

`O=C(N/N=C\c1cccc(O)c1)c1ccncc1` and `CCOC(=O)C(O)(NC(=O)c1ccc(F)cc1)C(F)(F)F` (centres undefined) cannot be ordered by TGI: > 100 µM for the first, > 100 µM for the second.

For `Clc1ccccc1/C=C/c1cscn1`, the TGI was > 100 µM.

First: O=S1(=O)N(CCNc2nccc(-c3c(-c4cccc(O)c4)nc4sccn34)n2)CCN1Cc1ccccc1
Second: Cc1cc(O)c(C(C)(C)C)cc1Sc1cc(C(C)(C)C)c(O)cc1C
The GI50 of the first is 2.1-fold higher: 7.19 µM for the first, 3.49 µM for the second.

`O=C1NN(C2=NNC3(C(=O)N2)c2ccccc2-c2ccccc23)C(c2ccccc2)=N/C1=C/c1ccc(O)cc1` showed a GI50 of 61.5 µg/mL.

In the case of `O=C1NN(C2=NNC3(C(=O)N2)c2ccccc2-c2ccccc23)C(c2ccccc2)=N/C1=C/c1ccc(O)cc1`, the TGI is reported as > 150 µg/mL.

Tested on: LOX IMVI melanoma
Test: NCI anticancer screen, dose series, 48 h

Compared with `O=C(O)Cc1cc(O)c(CC(=O)O)cc1O`, `Cc1cc(O)c(C(C)(C)C)cc1Sc1cc(C(C)(C)C)c(O)cc1C` is lower in TGI: > 100 µM for the first, 3.64 µM for the second.

Compared with `N#Cc1c(Cl)c2cc([N+](=O)[O-])ccc2n2c1nc1ccccc12`, `Cc1nc2ccccc2n1C(=O)c1c(F)c(F)c(F)c(F)c1F` is 8.2-fold higher in TGI: 3.05 µM for the first, 25.1 µM for the second.

`C=CC1(C)CCC2=C(CCC3C(C)(C(=O)OC)CCCC23C)C1=O` (centres undefined) and `C=C(C)C(=O)OC1CCC2(C)C(CCC3C2CCC2(C)C(c4ccc(=O)oc4)CC4OC432)C1` (centres undefined) are within 1.5-fold of each other in TGI: 34.3 µM for the first, 24.1 µM for the second.

`O=S1(=O)N(CCNc2nccc(-c3c(-c4cccc(O)c4)nc4sccn34)n2)CCN1Cc1ccccc1` and `O=C1CCCCC2N(C(c3ccccc3)c3ccccc3)CC[C@@]12c1ccccc1` (mixture of isomers) cannot be ordered by TGI: 16.2 µM for the first, > 10 µM for the second.

`O=C(N/N=C\c1cccc(O)c1)c1ccncc1` and `CCOC(=O)C(O)(NC(=O)c1ccc(F)cc1)C(F)(F)F` (centres undefined) cannot be ordered by TGI: > 100 µM for the first, > 100 µM for the second.

`Clc1ccccc1/C=C/c1cscn1` was tested, and the TGI was > 100 µM.

`O=S1(=O)N(CCNc2nccc(-c3c(-c4cccc(O)c4)nc4sccn34)n2)CCN1Cc1ccccc1` and `Cc1cc(O)c(C(C)(C)C)cc1Sc1cc(C(C)(C)C)c(O)cc1C` are within 1.5-fold of each other in GI50: 2.57 µM for the first, 1.97 µM for the second.

Compound `O=C1NN(C2=NNC3(C(=O)N2)c2ccccc2-c2ccccc23)C(c2ccccc2)=N/C1=C/c1ccc(O)cc1` has a GI50 of 32.2 µg/mL.

For `O=C1NN(C2=NNC3(C(=O)N2)c2ccccc2-c2ccccc23)C(c2ccccc2)=N/C1=C/c1ccc(O)cc1`, the TGI was 71.3 µg/mL.

Tested on: OVCAR-8 ovarian
Test: NCI anticancer screen, dose series, 48 h

First: O=C(O)Cc1cc(O)c(CC(=O)O)cc1O
Second: Cc1cc(O)c(C(C)(C)C)cc1Sc1cc(C(C)(C)C)c(O)cc1C
The TGI of the first is higher: > 100 µM for the first, 15.4 µM for the second.

First: N#Cc1c(Cl)c2cc([N+](=O)[O-])ccc2n2c1nc1ccccc12
Second: Cc1nc2ccccc2n1C(=O)c1c(F)c(F)c(F)c(F)c1F
The TGI of the first is 3.8-fold lower: 10.6 µM for the first, 40.6 µM for the second.

Going from `C=CC1(C)CCC2=C(CCC3C(C)(C(=O)OC)CCCC23C)C1=O` (centres undefined) to `C=C(C)C(=O)OC1CCC2(C)C(CCC3C2CCC2(C)C(c4ccc(=O)oc4)CC4OC432)C1` (centres undefined), the TGI falls from > 100 µM to 24 µM.

`O=S1(=O)N(CCNc2nccc(-c3c(-c4cccc(O)c4)nc4sccn34)n2)CCN1Cc1ccccc1` and `O=C1CCCCC2N(C(c3ccccc3)c3ccccc3)CC[C@@]12c1ccccc1` (mixture of isomers) cannot be ordered by TGI: > 50 µM for the first, > 10 µM for the second.

`COc1cc(/C=C2\CCCC3=C2NC(C)=NC3c2cc(OC)c(OC)c(OC)c2)cc(OC)c1OC` (centres undefined) and `O=C(N/N=C\c1cccc(O)c1)c1ccncc1` cannot be ordered by TGI: > 100 µM for the first, > 100 µM for the second.

For `CCOC(=O)C(O)(NC(=O)c1ccc(F)cc1)C(F)(F)F` (centres undefined), the TGI was > 100 µM.

`O=S1(=O)N(CCNc2nccc(-c3c(-c4cccc(O)c4)nc4sccn34)n2)CCN1Cc1ccccc1` and `Cc1cc(O)c(C(C)(C)C)cc1Sc1cc(C(C)(C)C)c(O)cc1C` are within 1.5-fold of each other in GI50: 4.88 µM for the first, 3.82 µM for the second.

With `COc1cc(/C=C2\CCCC3=C2NC(C)=NC3c2cc(OC)c(OC)c(OC)c2)cc(OC)c1OC` (centres undefined) the GI50 was 0.372 µM.

`O=C1NN(C2=NNC3(C(=O)N2)c2ccccc2-c2ccccc23)C(c2ccccc2)=N/C1=C/c1ccc(O)cc1` showed a GI50 of 65.9 µg/mL.

In the case of `O=C1NN(C2=NNC3(C(=O)N2)c2ccccc2-c2ccccc23)C(c2ccccc2)=N/C1=C/c1ccc(O)cc1`, the TGI is reported as > 150 µg/mL.

Tested on: UO-31 renal
Test: NCI anticancer screen, dose series, 48 h

Compared with `O=C(O)Cc1cc(O)c(CC(=O)O)cc1O`, `Cc1cc(O)c(C(C)(C)C)cc1Sc1cc(C(C)(C)C)c(O)cc1C` is lower in TGI: > 100 µM for the first, 8.25 µM for the second.

Going from `N#Cc1c(Cl)c2cc([N+](=O)[O-])ccc2n2c1nc1ccccc12` to `Cc1nc2ccccc2n1C(=O)c1c(F)c(F)c(F)c(F)c1F`, the TGI rises from 6.82 µM to 33.9 µM (5-fold).

`C=CC1(C)CCC2=C(CCC3C(C)(C(=O)OC)CCCC23C)C1=O` (centres undefined) and `C=C(C)C(=O)OC1CCC2(C)C(CCC3C2CCC2(C)C(c4ccc(=O)oc4)CC4OC432)C1` (centres undefined) are within 1.5-fold of each other in TGI: 42.8 µM for the first, 35.8 µM for the second.

`O=S1(=O)N(CCNc2nccc(-c3c(-c4cccc(O)c4)nc4sccn34)n2)CCN1Cc1ccccc1` and `O=C1CCCCC2N(C(c3ccccc3)c3ccccc3)CC[C@@]12c1ccccc1` (mixture of isomers) cannot be ordered by TGI: 39.3 µM for the first, > 10 µM for the second.

`O=C(N/N=C\c1cccc(O)c1)c1ccncc1` and `CCOC(=O)C(O)(NC(=O)c1ccc(F)cc1)C(F)(F)F` (centres undefined) cannot be ordered by TGI: > 100 µM for the first, > 100 µM for the second.

In the case of `Clc1ccccc1/C=C/c1cscn1`, the TGI is reported as > 100 µM.

`O=S1(=O)N(CCNc2nccc(-c3c(-c4cccc(O)c4)nc4sccn34)n2)CCN1Cc1ccccc1` and `Cc1cc(O)c(C(C)(C)C)cc1Sc1cc(C(C)(C)C)c(O)cc1C` are within 1.5-fold of each other in GI50: 3.01 µM for the first, 2.07 µM for the second.

In the case of `O=C1NN(C2=NNC3(C(=O)N2)c2ccccc2-c2ccccc23)C(c2ccccc2)=N/C1=C/c1ccc(O)cc1`, the GI50 is reported as 48.9 µg/mL.

For `O=C1NN(C2=NNC3(C(=O)N2)c2ccccc2-c2ccccc23)C(c2ccccc2)=N/C1=C/c1ccc(O)cc1`, the TGI was > 150 µg/mL.

Tested on: HCT-116 colon
Test: NCI anticancer screen, dose series, 48 h

`O=C(O)Cc1cc(O)c(CC(=O)O)cc1O` and `CCOC(=O)C(O)(NC(=O)c1ccc(F)cc1)C(F)(F)F` (centres undefined) cannot be ordered by TGI: > 100 µM for the first, > 100 µM for the second.

Going from `N#Cc1c(Cl)c2cc([N+](=O)[O-])ccc2n2c1nc1ccccc12` to `Cc1nc2ccccc2n1C(=O)c1c(F)c(F)c(F)c(F)c1F`, the TGI falls from > 100 µM to 21.8 µM.

Going from `C=CC1(C)CCC2=C(CCC3C(C)(C(=O)OC)CCCC23C)C1=O` (centres undefined) to `C=C(C)C(=O)OC1CCC2(C)C(CCC3C2CCC2(C)C(c4ccc(=O)oc4)CC4OC432)C1` (centres undefined), the TGI falls from 31.1 µM to 19 µM (1.6-fold).

`O=S1(=O)N(CCNc2nccc(-c3c(-c4cccc(O)c4)nc4sccn34)n2)CCN1Cc1ccccc1` and `O=C1CCCCC2N(C(c3ccccc3)c3ccccc3)CC[C@@]12c1ccccc1` (mixture of isomers) cannot be ordered by TGI: 19.4 µM for the first, > 10 µM for the second.

Compared with `COc1cc(/C=C2\CCCC3=C2NC(C)=NC3c2cc(OC)c(OC)c(OC)c2)cc(OC)c1OC` (centres undefined), `O=C(N/N=C\c1cccc(O)c1)c1ccncc1` is higher in TGI: 1.76 µM for the first, > 100 µM for the second.

With `Clc1ccccc1/C=C/c1cscn1` the TGI was > 100 µM.

Going from `O=S1(=O)N(CCNc2nccc(-c3c(-c4cccc(O)c4)nc4sccn34)n2)CCN1Cc1ccccc1` to `COc1cc(/C=C2\CCCC3=C2NC(C)=NC3c2cc(OC)c(OC)c(OC)c2)cc(OC)c1OC` (centres undefined), the GI50 falls from 5.56 µM to 0.46 µM (12-fold).

Compound `O=C1NN(C2=NNC3(C(=O)N2)c2ccccc2-c2ccccc23)C(c2ccccc2)=N/C1=C/c1ccc(O)cc1` has a GI50 of 103 µg/mL.

With `O=C1NN(C2=NNC3(C(=O)N2)c2ccccc2-c2ccccc23)C(c2ccccc2)=N/C1=C/c1ccc(O)cc1` the TGI was > 150 µg/mL.

Tested on: K-562 leukemia
Test: NCI anticancer screen, dose series, 48 h

`O=C(O)Cc1cc(O)c(CC(=O)O)cc1O` and `C=CC1(C)CCC2=C(CCC3C(C)(C(=O)OC)CCCC23C)C1=O` (centres undefined) cannot be ordered by TGI: > 100 µM for the first, > 100 µM for the second.

For `N#Cc1c(Cl)c2cc([N+](=O)[O-])ccc2n2c1nc1ccccc12`, the TGI was > 36.7 µM.

— PubChem BioAssay (NCI)
